What was measured:
[1] = tested on: acetylated tubulin in B16F10 cells; assay: western blot for accumulation of acetylated tubulin in B16F10 cells; format: cell-based
B16F10 [2] = assay: antiproliferation study, B16F10 melanoma cell line
B16F10 [3] = assay: verapamil; conditions: B16F10, verapamil at 100 µM, data not shown
HDAC1 = HDAC1 (Homo sapiens, UniProt Q13547); assay: cell-free HDAC isoform inhibition assay, HDAC1
A375 = assay: antiproliferation study, A375 melanoma cell line; conditions: SAHA as control HDACi
[4] = phase II clinical trial; ref 3a; cited from earlier work
[5] = increasing drug concentrations (5–50 µM)

HDAC1, sequence (Q13547 whole entry, species assumed, canonical isoform): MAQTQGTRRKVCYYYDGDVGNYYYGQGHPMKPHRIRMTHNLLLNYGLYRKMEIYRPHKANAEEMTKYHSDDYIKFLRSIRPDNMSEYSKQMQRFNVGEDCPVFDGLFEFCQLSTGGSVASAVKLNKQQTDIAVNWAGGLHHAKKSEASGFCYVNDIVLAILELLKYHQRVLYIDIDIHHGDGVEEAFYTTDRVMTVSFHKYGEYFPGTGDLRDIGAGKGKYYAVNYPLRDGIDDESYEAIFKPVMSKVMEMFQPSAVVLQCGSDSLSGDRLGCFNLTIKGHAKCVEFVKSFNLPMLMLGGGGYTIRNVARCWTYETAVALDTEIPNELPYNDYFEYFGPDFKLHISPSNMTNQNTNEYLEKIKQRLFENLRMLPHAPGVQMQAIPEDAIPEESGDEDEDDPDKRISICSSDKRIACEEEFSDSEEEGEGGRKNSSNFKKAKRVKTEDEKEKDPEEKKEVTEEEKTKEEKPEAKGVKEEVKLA

For `COc1ccc2cc(-c3cn(CCCCCC(=O)NO)nn3)ccc2c1` [7u, reference compound], which “accumulation of acetylated tubulin” value ([1]; 20 µM) is on record?
Its value is “significant accumulation of acetylated tubulin”.

For `CCN(CC)CCNC(=O)c1ccc(-c2cn(CCCCCCC(=O)NO)nn2)cc1` [10a], which “fold less active relative to SAHA against B16F10” value (B16F10 [2]; SAHA as control HDACi) is on record?
The value was “about 3 fold”.

And the “accumulation of acetylated tubulin” value [1, 5]?
Its value is “gave a similar effect”.

And the “effect of verapamil co-treatment on cytotoxic effect” value (B16F10 [3])?
The value was “did not improve the cytotoxic effect”.

What about the “selectivity for HDAC1 compared to HDAC6” value (HDAC1) of the same compound?
The value was “about four-fold”.

What about the “fold less active relative to SAHA against A375” value (A375) of the same compound?
Its value is ~6 fold.

Which “selectivity for HDAC1 compared to HDAC6” value (HDAC1) does the source give for `CCN(CC)CCNC(=O)c1ccc(-c2cn(CCCCCC(=O)NO)nn2)cn1` [11a] here?
Its value is “almost indistinguishable”.

With `CCN(CC)CCNC(=O)c1ccc(-c2cn(CCCCCCC(=O)NO)nn2)cn1` [11b] as the compound, how does the “effect of verapamil co-treatment on cytotoxic effect” value (B16F10 [3]) read?
Its value is “did not improve the cytotoxic effect”.

With `CCN(CC)CCNC(=O)c1ccc(I)cc1` [N-(2-(diethylamino)ethyl)-4-iodobenzamide] as the compound, how does the “toxicity to the patients” value [4] read?
The value was “little toxicity”.

With `O=C(CCCCCCC(=O)Nc1ccccc1)NO` [SAHA, reference compound] as the compound, how does the “accumulation of acetylated tubulin” value ([1]; 20 µM) read?
Its value is “significant accumulation of acetylated tubulin”.

Which results are given for `CCN(CC)CCNC(=O)c1ccc(C(=O)ONC(=O)CCCCCn2cc(-c3ccc4cc(OC)ccc4c3)nn2)cc1` [compound 14]?
growth inhibitory effect compared with compound 10a (B16F10 [2]; B16F10, at 50 µM (Fig. 4)): much more potent than compound 10a; growth inhibitory effect compared with compound 10a (B16F10 [2]; B16F10, dosed at 25 µM (Fig. 4)): same level of potency as compound 10a; accumulation of acetylated tubulin [1, 5]: increase in the level of acetylated tubulin in a concentration dependent manner

From PMC5314971 (Bioorganic & medicinal chemistry letters, 2017)
